In a melting point compilation (Tetko et al.; mined from patent text by program, amines drawn as free bases though some values may be those of a salt) one finds melting point data, which are given here for 88 compounds.

Bounds are passed on as bounds.

Turning to `O=C1NC(=O)C(Cc2ccc(OCc3cn4ccccc4n3)cc2)S1` (stereo not drawn), the melting point was 197 to 202 °C.
Consider `COc1cc(C2=CCCCC2)c(Cl)cc1C(=O)N1Cc2ccc(C(=O)N(C)Cc3cccnc3)n2Cc2ccccc21`, for which the melting point is 178 to 179 °C.
In turn, `CCCC(=NOCC)C1=C(O)CC(c2c(OC)nc(C)c3c2CCCC3=O)CC1=O` (stereo not drawn) displayed a melting point of 162 °C.
`CC(C)(CO)NC(=S)NC(=O)c1ccccc1` displayed a melting point of 116 to 118 °C.
On to `O=C1N(Cc2ccc(C(F)F)o2)c2ccccc2C12COc1cc3c(cc12)OCCO3` (stereo not drawn), for which the melting point was in the range of 173 to 175 °C.
The same measure for `O=C(O)Cc1ccc(CCNC(=O)C2Cc3ccccc3N2S(=O)(=O)c2ccc(-c3cccc(C(F)(F)F)c3)cc2)cc1` (stereo not drawn): 110 °C; for `Cc1c(C(C)CC(=O)O)n(Cc2ccc(Cl)cc2)c2ccc(O)cc12` (stereo not drawn): 162 °C; for `CCCCCCCCNC(=O)N1CCC(Nc2ccc(CCNC[C@H](O)COc3ccc(F)cc3)cc2)CC1`: 58 to 64 °C.
`O=C1OCc2ncccc21`: the melting point is 113 to 118 °C.
In turn, `CCCCCCCCCCCCCCN=C=O` registered a melting point of 100 to 104 °C.
In turn, `CN1CCC(n2ccc3ccccc32)CC1` had a melting point of 58 °C.
As for `CCOC(=O)C(F)Cc1ccc(OCCN(C)c2nc3ccccc3o2)cc1` (stereo not drawn), the melting point lay in the range of 65 to 67 °C.
As to `O=C(O)c1ccc2c(c1)Cc1ccccc1O2`, the melting point lay within 298 to 299 °C.
For `O=C1C(CC23CC(c4ccccc42)c2ccccc23)OCCN1Cc1ccccc1` (stereo not drawn), the melting point is 155 to 156 °C.
`C=C(C)COc1ccc(Br)cc1CN(CC)c1ccc(C(=O)NS(=O)(=O)c2ccccc2)cn1` came in with a melting point of 193 °C.
As for `CCOc1nn(-c2ccc(C(F)(F)F)cn2)cc1CCCOc1cc(CCC(=O)O)n(-c2ccccc2)n1`, the melting point fell in the range of 121 to 122 °C.
The same measure for `CN1CC(NCc2ccccc2)=Nc2ccc(Cl)cc2C1=O`: 158 to 160 °C.
As to `CC1(C)OC(C=Cc2ccc(Cl)cc2)=CC1=O`, the melting point was in the range of 91 to 92 °C.
Take `O=C(O)[C@H](Cc1ccc(C(F)(F)F)c(F)c1)[C@@H](O)c1ccc(F)cc1` (racemic): the melting point is 74 to 75 °C.
Take `CN(C)CC#CCNC(=O)/C=C\C(=O)O`: the melting point was in the range of 155 to 157 °C.
As to `CCCN(Cc1ccc(-c2ccccc2-c2nc(=O)o[nH]2)cc1)c1nn(C)cc1C(=O)OCC`, the melting point was in the range of 182 to 183 °C.
The same measure for `CCOC(=O)c1cccc(/C=C/C(=O)c2cc(O)ccc2[N+](=O)[O-])c1`: 157 to 159 °C; for `COc1ccc(N2CCN(CCn3c(=NC(=O)C(F)(F)F)sc4cc(C(F)(F)F)ccc43)CC2)cc1`: 120 °C.
As for `CC(C)NCC(O)COC1c2ccccc2C(=O)N1c1ccc(Cl)cc1` (stereo not drawn), the melting point was in the range of 90 to 92 °C.
`OC(CNC1CCc2ccccc2C1)COc1cccc2c1CCCC2` (stereo not drawn) came in with a melting point of 90 to 93 °C.
In the case of `CS(=O)(=O)OCCc1ccc([N+](=O)[O-])cc1COS(C)(=O)=O`, the melting point was in the range of 83 to 85 °C.
In turn, `O=C(O)CNC(COCc1cc(C(F)(F)F)cc(C(F)(F)F)c1)C(c1ccccc1)c1ccccc1` (stereo not drawn) registered a melting point of 116 to 119 °C.
`CC(=O)SCCC(=O)N1NC(=O)CC1C(=O)O` (stereo not drawn): the melting point lay in the range of 205 to 207 °C.
Compound `CC1Oc2ccc(O)cc2C=C1C=O` (stereo not drawn) had a melting point of 107 to 109 °C.
In the case of `O=C(O)C1CCc2cc([N+](=O)[O-])ccc2O1` (stereo not drawn), the melting point is 180 °C.
`O=C(O)CCCCCCCCCCCCCCCI` returned a melting point of 71 to 72 °C.
`COC(=O)c1cc(C(=O)c2c(C)c(NC(=O)c3cccc(OC(C)=O)c3)c3ccccn23)ccc1N` showed a melting point of 210 °C.
In turn, `OC(COc1ccccc1-c1cc[nH]n1)CN1CCN(c2ccc(Cl)cc2)CC1` (stereo not drawn) returned a melting point of 120 to 121 °C.
`Cc1ccc(CCCCc2ccc(C(=O)C[C@@H](C)CC(=O)O)s2)cc1`: the melting point was found to be 94 °C.
In the case of `NC(=NO)c1cc2c(Oc3ccc(Cl)cc3)cncc2s1`, the melting point fell in the range of 194 to 196 °C.
The same measure for `NC(=O)N1C(=O)C(=C(OC(=O)c2cccc(C(=O)O)c2)c2cccs2)c2cc(F)c(Cl)cc21`: 244 to 248 °C; for `S=C(Cc1ccc2c(c1)CCO2)N1CCOCC1`: 141 to 143 °C; for `CCOc1ccc(OCc2ccccc2)c(C(=O)OC)n1`: 45 to 46 °C.
Under `N#CC(C#N)=CN(N=C(C#N)C#N)c1ccc(Br)cc1` stands 191 to 192 °C.
The compound `CC(C)C(=O)Oc1ccc2nc(NC(=O)Nc3ccccc3)sc2c1` gave a melting point of 212 to 215 °C.
The same measure for `Oc1ccc2nscc2c1`: 215 to 216 °C; for `CC(C)=CCN(C(=O)OC(C)(C)C)c1ccc(OC2CCN(C(=O)OC(C)(C)C)CC2)cc1`: 145 to 148 °C.
Consider `COc1nsc(S(=O)(=O)c2ccccc2)c1C#N`, for which the melting point was 64 °C.
In the case of `Cn1cc(C(=O)c2ccc3ccccc3c2)cc1C(=O)CCl`, the melting point was in the range of 148 to 151 °C.
The compound `CC(=O)OC1C(CO)OC(n2cnc3c(N)ncnc32)C1OC(C)=O` (stereo not drawn) had a melting point of 138 to 139 °C.
Under `CN(C(C)(C)C)S(=O)(=O)c1cccnc1SCc1ccccc1` stands 92 to 94 °C; under `Oc1nc2c(Cl)nc3ccccc3c2n1CC1CCOCC1`, above 275 °C.
Compound `CCc1cc(CC)c(-c2c(OCS(C)(=O)=O)c(C)nn(C)c2=O)c(CC)c1` registered a melting point of 142 to 143 °C.
`CC(C=Cc1c(C)cc(C)c(C)c1C)=CC=CC(C)=CC(=O)O`: the melting point lay in the range of 201 to 202 °C.
Turning to `O=C1Cn2c(nc3ccccc3c2=O)-c2ccccc2N1`, the melting point is 318 to 319 °C.
Turning to `O=C1Nc2ccccc2C(c2ccccc2)N1CC1CCN(Cc2ccccc2)CC1` (stereo not drawn), the melting point lay in the range of 163 to 165 °C.
As to `CCc1nc2sc3ccccc3n2c1CO`, the melting point lay in the range of 180 to 182 °C.
Consider `FC(F)(F)Sc1c(-c2ccc(Cl)cc2)[nH]c(C(F)(F)F)c1Br`, for which the melting point lay within 87 to 88.5 °C.
`COc1cc(NC(=O)C(C#N)=CNc2ccc(OC)c(OCCCCl)c2)c(Cl)cc1Cl`: the melting point fell in the range of 185 to 192 °C.
The same measure for `COc1cc2c(cc1Nc1ncc(Cl)c(N[C@@H]3CCCC[C@H]3NS(C)(=O)=O)n1)CCN(C(=O)C(F)(F)F)CC2`: 98 to 107 °C; for `CCN1C(c2nnc(-c3ccccc3)o2)=C(OC(=O)C2CCCC2)c2ccccc2S1(=O)=O`: 194 to 196 °C.
Consider `COc1cc2ncnc(Nc3cccc4ccccc34)c2cc1OC`, for which the melting point is 271 to 273 °C.
`Cc1cc(OCc2ccccc2)c2cc(C(=O)O)[nH]c2c1` gave a melting point of 178 to 180 °C.
For `Nc1cc(C(=O)Nc2ccc(F)cc2)ccc1OC(F)(F)F`, the melting point was in the range of 139 to 140 °C.
Compound `FC(F)(F)c1ccc(-c2nc(Oc3csc(C(F)(F)F)c3)cc(Oc3csc(C(F)(F)F)c3)n2)cc1` displayed a melting point of 93 to 95 °C.
Turning to `N#CCOc1cccc(COc2ccc(OCc3ccc4ccccc4n3)cc2)c1`, the melting point was in the range of 110 to 114 °C.
As for `CCc1ccc2nc(N)nc(Nc3ccccc3C)c2c1`, the melting point was in the range of 263 to 265 °C.
The same measure for `Cc1c(C2CCCC2)c(=O)oc2cc(OCc3nnn[nH]3)cc(OCc3nnn[nH]3)c12`: 248 to 252 °C; for `O=C(c1cccnc1)N1CCC(c2ccc(F)cc2)=N1`: 128 to 130 °C.
As to `COc1ccccc1S(=O)(=O)N(C)c1cccc2cc(C3=NCC(CC(N)=O)S3)[nH]c12` (stereo not drawn), the melting point lay in the range of 227 to 228 °C.
Take `COC(=O)c1cc(C(=O)N2CCCC(=O)C2)c2cc(Cc3ccc(F)cc3)cnc2c1O`: the melting point fell in the range of 228 to 229 °C.
`CC(ON=Cc1c(F)cccc1Cl)C(=O)O` (stereo not drawn): the melting point was 106 to 107 °C.
`CC(C)(C)OC(=O)N[C@@H](CCl)[C@H](O)CCl` showed a melting point of 142 to 145 °C.
With `COC(=O)c1cc2ccc(OC)cc2cc1/N=C/N(C)C`, the melting point lay in the range of 122 to 124 °C.
Regarding `Cc1ccc(-c2cc(N3CCCCC3)c(C#N)c3c2-c2ccccc2C3=O)cc1`, the melting point lay in the range of 230 to 232 °C.
On to `CNS(=O)(=O)c1cc(-n2nc3ccc(Cl)cn3c2=O)c(F)cc1C#N`, for which the melting point is 154 to 157 °C.
For `O=C1C(CCO)Oc2ccc(Cl)cc2N1Cc1cccc(Cl)c1` (stereo not drawn), the melting point was 90 to 92 °C.
As to `CC[C@H]1CN(c2c(F)c(N)c3c(=O)c(C(=O)O)cn(C4CC4)c3c2F)C[C@H]1CNCCC(=O)C(F)(F)F` (relative stereo), the melting point was in the range of 145 to 146 °C.
The same measure for `COc1ccc(-c2cc(C(=O)O)sc2-c2ccc(F)cc2)cc1`: 204 to 206 °C; for `COCOc1ccc(C(=O)COc2cc(OCc3ccccc3)ccc2CO)c(OCc2ccccc2)c1`: 115 to 118 °C; for `O=C(Oc1ccc(/C=c2\[nH]c(=O)/c(=C/c3ccccc3)[nH]c2=O)nc1)c1ccncc1`: 262 to 264 °C.
In turn, `Nc1c(OCC(O)CN2CCC(COc3ccccc3)CC2)cccc1[N+](=O)[O-]` (stereo not drawn) displayed a melting point of 117 to 118 °C.
The compound `CC(C)c1cccc(F)c1NC(=S)NN` gave a melting point of 122 to 124 °C.
Turning to `CCOC(=O)CCCN(C(=O)CN(C(=O)c1ccc(Cl)cc1)c1c(C)cccc1C)c1c(C)cccc1C`, the melting point was 150 to 151 °C.
The compound `NC(=O)CCCCC1CCCCC1` yielded a melting point of 121 to 122 °C.
`O=c1c2cccnc2sc(=Nc2ccccc2)n1Cc1ccccc1`: the melting point is 105 to 106 °C.
Regarding `CC(C)(C)c1cc2c(c(C(C)(C)C)c1)OC(=O)C2c1ccc(O)cc1` (stereo not drawn), the melting point was 187 to 190 °C.
Compound `Nc1ccc(SC2=CCCCC2)cc1[N+](=O)[O-]` showed a melting point of 93 to 95 °C.
The compound `O=C(Nc1ccc2oc(=O)[nH]c2c1)C(=O)N1CCC(Cc2ccc(F)cc2)CC1` yielded a melting point of 226 to 231 °C.
Under `C=CC(=O)OCCCCCCCCOc1ccc(C(=O)Oc2ccc(C=O)cc2)cc1` stands 73 °C; under `O=C(Nc1ccc(F)cc1)c1ccccc1`, 167 to 168 °C.
The same measure for `CCOC(=O)N1CCC(Nc2ccc(Cl)cc2C(=O)c2ccccc2F)CC1`: 112 to 114 °C; for `COc1ccc(Oc2cccnc2)cc1C#CC(C)N(O)C(N)=O` (stereo not drawn): 153 to 154 °C.

What is called melting point is the temperature of the solid-liquid transition.
